Data taken from patent US20090263488A1, “PRESSURISED METERED DOSE INHALERS CONTAINING SOLUTIONS OF BETA-2 AGONISTS” (Chiesi Farmaceutici S.p.A., priority 2002, published 2009).

Assay: Stability study of TA 2005 HFA solution formulation in cans
Assay type: physicochemical
Conditions: HFA formulation able to deliver 4 μg per actuation; cans stored upright at 5° C.; after nine months
Experimental: A stability study on a formulation able to deliver 4 μg per actuation was initiated storing the cans upright at 5° C.

COc1ccc(C[C@@H](C)NC[C@H](O)c2ccc(O)c3[nH]c(=O)ccc23)cc1 [TA 2005, 8-hydroxy-5-[(1R)-1-hydroxy-2-[[(1R)-2-(4-methoxyphenyl)-1-methylethyl]amino]ethyl]-2(1H)-quinolinone]
TA 2005 assay: higher than 95%
